This passage reports relative viability results from the supplement of paper PMC10307832.

What all share (test): relative viability (nuclei count vs DMSO), 5 days (fraction); higher = more cells survive
Compound in experiment [1]: Cc1ccc(C(=O)Nc2ccc(CN3CCN(C)CC3)c(C(F)(F)F)c2)cc1C#Cc1cnc2cccnn12 [Ponatinib] + COc1cc2c(Oc3ccc(NC(=O)C4(C(=O)Nc5ccc(F)cc5)CC4)cc3F)ccnc2cc1OCCCN1CCOCC1 [Foretinib] (partner 0.25 µM)
The gist of the method:
(§1)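 Lung cancer cell lines were pin-tool dosed in 1536-well plates on the day after seeding, with either a lone drug or a fixed anchor-drug dose plus five library-drug doses (not always all listed) in √10 steps. Nuclei were counted on 4× images after 5 days. Relative viability is the ratio of treated-well to vehicle-well nuclei counts, with each value a median of duplicate plates.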

Compound in experiment [2]: Cc1ccc(C(=O)Nc2ccc(CN3CCN(C)CC3)c(C(F)(F)F)c2)cc1C#Cc1cnc2cccnn12 [Ponatinib] + CS(=O)(=O)N1CCN(Cc2cc3nc(-c4cccc5[nH]ncc45)nc(N4CCOCC4)c3s2)CC1 [Pictilisib] (partner 1 µM)
The procedure, abridged: as §1

Compound in experiment [3]: Cc1ccc(Nc2nccc(N(C)c3ccc4c(C)n(C)nc4c3)n2)cc1S(N)(=O)=O [Pazopanib] + O=C(c1cc(Cc2n[nH]c(=O)c3ccccc23)ccc1F)N1CCN(C(=O)C2CC2)CC1 [Olaparib] (partner 8 µM)
The procedure, abridged:
as §1

Compound in experiment [4]: Cc1ccc(Nc2nccc(N(C)c3ccc4c(C)n(C)nc4c3)n2)cc1S(N)(=O)=O [Pazopanib] + Cc1cc(Nc2cc(N3CCN(C)CC3)nc(Sc3ccc(NC(=O)C4CC4)cc3)n2)n[nH]1 [Tozasertib] (partner 0.1 µM)
The procedure, abridged: as §1

Turning to NCI-H1563, the relative viability was determined as 0.881 in experiment [1] (first compound 0.002 µM); 0.863 in experiment [1] (first compound 0.006325 µM); 0.955 in experiment [1] (first compound 0.06325 µM); 0.854 in experiment [1] (first compound 0.2 µM); 0.546 in experiment [2] (first compound 0.002 µM); 0.601 in experiment [2] (first compound 0.006325 µM). The relative viability in experiment [2] (first compound 0.06325 µM) came out at 0.586; in experiment [2] (first compound 0.2 µM), 0.599.
For the cell line A549, the relative viability in experiment [1] (first compound 0.002 µM) was 0.965; in experiment [1] (first compound 0.006325 µM), 0.941; in experiment [1] (first compound 0.06325 µM), 1.13; in experiment [1] (first compound 0.2 µM), 0.887; in experiment [2] (first compound 0.002 µM), 0.527; in experiment [2] (first compound 0.006325 µM), 0.645. In addition, the relative viability in experiment [2] (first compound 0.06325 µM) is 0.608; in experiment [2] (first compound 0.2 µM) it was 0.401; in experiment [3] (first compound 0.01 µM) it was 0.248; in experiment [3] (first compound 0.03162 µM), 0.301; in experiment [3] (first compound 0.1 µM) it was 0.283; in experiment [3] (first compound 0.3162 µM) it was 0.297. Besides, in experiment [3] (first compound 1 µM), the relative viability came to 0.36.
NCI-H2342: the relative viability in experiment [1] (first compound 0.002 µM) turned out to be 1.04; in experiment [1] (first compound 0.006325 µM), 1.04; in experiment [1] (first compound 0.06325 µM) it was 1.01; in experiment [1] (first compound 0.2 µM), 0.972; in experiment [4] (first compound 0.01 µM), 0.481; in experiment [4] (first compound 0.03162 µM), 0.554. Moreover, the relative viability in experiment [4] (first compound 0.1 µM) was found to be 0.544; in experiment [4] (first compound 0.3162 µM) it was 0.496; in experiment [4] (first compound 1 µM) it was 0.388; in experiment [3] (first compound 0.01 µM) it was 0.385; in experiment [3] (first compound 0.03162 µM), 0.443; in experiment [3] (first compound 0.1 µM) it was 0.481. Also, the relative viability amounted to 0.386 in experiment [3] (first compound 0.3162 µM) and 0.365 in experiment [3] (first compound 1 µM).
For the cell line NCI-H1623, the relative viability in experiment [1] (first compound 0.002 µM) came to 0.899; in experiment [1] (first compound 0.006325 µM) it was 0.832; in experiment [1] (first compound 0.06325 µM) it was 0.889; in experiment [1] (first compound 0.2 µM), 0.833; in experiment [4] (first compound 0.01 µM), 0.43; in experiment [4] (first compound 0.03162 µM), 0.455. Also, the relative viability in experiment [4] (first compound 0.1 µM) came out at 0.413; in experiment [4] (first compound 0.3162 µM) it was 0.46; in experiment [4] (first compound 1 µM), 0.393.
Regarding NCI-H522, the relative viability in experiment [4] (first compound 0.01 µM) stood at 0.568; in experiment [4] (first compound 0.03162 µM), 0.454; in experiment [4] (first compound 0.1 µM), 0.493; in experiment [4] (first compound 0.3162 µM) it was 0.646; in experiment [4] (first compound 1 µM), 0.58; in experiment [3] (first compound 0.01 µM), 0.587. Moreover, the relative viability in experiment [3] (first compound 0.03162 µM) worked out at 0.617; in experiment [3] (first compound 0.1 µM), 0.678; in experiment [3] (first compound 0.3162 µM), 0.707; in experiment [3] (first compound 1 µM), 0.642.
As to IA-LM, the relative viability in experiment [1] (first compound 0.002 µM) came out at 1.06; in experiment [1] (first compound 0.006325 µM), 1.1; in experiment [1] (first compound 0.06325 µM), 1.01; in experiment [1] (first compound 0.2 µM), 1.06; in experiment [2] (first compound 0.002 µM), 0.428; in experiment [2] (first compound 0.006325 µM), 0.386. For the same cell line, the relative viability came out at 0.572 in experiment [2] (first compound 0.06325 µM); 0.442 in experiment [2] (first compound 0.2 µM); 0.719 in experiment [3] (first compound 0.01 µM); 0.909 in experiment [3] (first compound 0.03162 µM); 0.925 in experiment [3] (first compound 0.1 µM); 0.774 in experiment [3] (first compound 0.3162 µM). Also, the relative viability in experiment [3] (first compound 1 µM) was found to be 0.658.
As for EBC-1, the relative viability in experiment [1] (first compound 0.002 µM) amounted to 0.106; in experiment [1] (first compound 0.006325 µM), 0.0969; in experiment [1] (first compound 0.06325 µM), 0.092; in experiment [1] (first compound 0.2 µM), 0.115; in experiment [2] (first compound 0.002 µM), 0.372; in experiment [2] (first compound 0.006325 µM), 0.428. Moreover, the relative viability is 0.327 in experiment [2] (first compound 0.06325 µM); 0.283 in experiment [2] (first compound 0.2 µM); 0.696 in experiment [3] (first compound 0.01 µM); 0.754 in experiment [3] (first compound 0.03162 µM); 0.696 in experiment [3] (first compound 0.1 µM); 0.751 in experiment [3] (first compound 0.3162 µM). Moreover, the relative viability in experiment [3] (first compound 1 µM) came out at 0.752.
